According to PMC9077470 (RSC Advances, 2018):
≈ marks a conversion by molar mass, not a printed value.

How the values were obtained:
[1] = Partition coefficients in n-octanol/phosphate buffer (pH 7.4); assay type: physicochemical; settings: means ± SD, n = 3
Procedure: The phosphate buffer and octanol were mutually saturated at 20–22 °C before use. Samples were dissolved in the aqueous phase and the n-octanol/phosphate buffer mixtures were shaken for 24 h to reach a distribution equilibrium. The volumes of each phase were chosen so that the solute concentration in the aqueous phase, before and after distribution, could readily be measured using HPLC method. The partition coefficients (P) were calculated from the following equation: [drawing 1] where Ci and Cw represent the solute concentrations in the aqueous buffer phase before and after distribution, respectively, Vw represents the volume of the aqueous phase, and Vo is the volume of the octanol phase.[16]

[2] = no reference given; cited from earlier work
[3] = Aqueous solubility (equilibrium, distilled water); assay type: physicochemical; settings: 25 °C, thermodynamic from solid, 25 ± 2 °C, means ± SD, n = 3, read-out: S (aqueous solubility)
Procedure: The mixtures were placed in an ultrasonic water bath for 10 min and then shaken for 24 h to establish a saturation equilibrium. Upon filtration, the filtrate was diluted with an appropriate amount of water and the mixture was analyzed by HPLC, the concentration of each compound in its saturated solution was calculated.

[4] = In vivo incubation in the colon of rats; settings: injected into tied rat colon, 6 h
Procedure: 6 hours later, rats were sacrificed and their colon contents were separated and homogenized in 40 mL of phosphate buffer (pH 7.4). The homogenate was sonicated for 5 min and centrifuged at 13 000 rpm for 5 min, then 0.2 mL of the supernatant was collected and mixed with 0.8 mL of methanol. Finally, samples were centrifuged, filtered and analyzed by HPLC. The residual contents of each prodrug in colon contents were calculated, and the hydrolysis ratio was calculated by the following equation: [drawing 2] where Wr is the residual amount of prodrugs in the colon contents and Wi is the initial amount of prodrugs that administered to rats.

[5] = tested on: TNBS-induced experimental colitis; assay: TNBS-induced colitis: disease activity index (DAI); assay type: in vivo, mice; settings: vs positive control (5-ASA + sodium butyrate)
Procedure: Colitis was induced according to the previous study.[18,19] Briefly, after 12 h of fasting, mice were anesthetized with intraperitoneal pentobarbital sodium (35 mg kg^-1) before the induction of colitis. 0.1 mL of 50% (v/v) ethanol contained 2.5% (v/v) TNBS was instilled into the colon 3.5-4 cm from the anus by a gavage needle. The mice were kept in a head-down position for 30 s to prevent leakage of the intracolonic instillation. Mice in the control group received normal saline instead of TNBS solution, a physical mixture of 5-ASA and sodium butyrate was used as the positive control. […] The treatments were given once daily for 5 continuous days starting 24 hours after the induction of colitis. DAI is ranged from 0 to 4 and it is the sum of scores given for body weight loss, stool consistency and presence or absence of fecal blood. The fecal occult blood of mice was evaluated by the ο-tolidine method.[22] A small amount of feces samples were smeared on a white plate. 2-3 drops of ο-tolidine solution (10 g L^-1, dissolved in acetic acid) were added into samples and mixed evenly. Then 2-3 drops of 3% H2O2 solution were added into the mixture, meanwhile, start the time and observe immediately. Scored as: normal, weak positive, green to light green developing over 2 min; +, positive, greenish-blue to deep green developing within 1 min; ++, positive, blue to bluish-green developing within 5-20 s; +++, very strong positive, intense blue color developing immediately.[23]

[6] = In vitro incubation with small intestine contents of rats; assay type: in vitro ADME; settings: rat small intestine contents homogenate, pH 6.8, 37 °C, after 4 h of incubation
Procedure: (§1) After anesthetized with diethyl ether, rats were sacrificed and their contents of stomach and small intestine were collected and homogenized respectively, the homogenate was diluted with buffer solution (pH 1.2 for stomach contents, pH 6.8 for small intestine contents) to 20% (w/v). […] After 0.25, 0.5, 1.0, 1.5, 2.0, 3.0 and 4.0 h of incubation, 200 μL of samples were collected and replaced with the same volume of blank homogenate, then samples were centrifuged at 13 000 rpm for 5 min, filtered with membrane filter, and analyzed by HPLC. The residual contents of each prodrug in homogenate were calculated and the hydrolysis curves were drawn.

[7] = In vitro incubation with stomach contents of rats; assay type: in vitro ADME; settings: rat stomach contents homogenate, pH 1.2, 37 °C, after 2 h of incubation
Procedure: as §1

[8] = tested on: MPO activity in colonic tissues; assay: TNBS-induced colitis: MPO activity in colonic tissues; assay type: in vivo, mice
Procedure: Colitis was induced according to the previous study.[18,19] Briefly, after 12 h of fasting, mice were anesthetized with intraperitoneal pentobarbital sodium (35 mg kg^-1) before the induction of colitis. 0.1 mL of 50% (v/v) ethanol contained 2.5% (v/v) TNBS was instilled into the colon 3.5-4 cm from the anus by a gavage needle. The mice were kept in a head-down position for 30 s to prevent leakage of the intracolonic instillation. Mice in the control group received normal saline instead of TNBS solution, a physical mixture of 5-ASA and sodium butyrate was used as the positive control. […] The treatments were given once daily for 5 continuous days starting 24 hours after the induction of colitis. […] Samples were freeze-thawed three times, after which sonication was repeated. Homogenates were then centrifuged at 13 000 rpm for 30 min and MPO was extracted from the resulting supernatant.[25] MPO activity was measured by the assay kit according to its provider's instructions.

[9] = tested on: TNBS-induced experimental colitis; assay: TNBS-induced colitis: body weight, survival rates, overall effect; assay type: in vivo, mice; settings: TNBS colitis mice; Ols-DB as enema, others i.g.
Procedure: Colitis was induced according to the previous study.[18,19] Briefly, after 12 h of fasting, mice were anesthetized with intraperitoneal pentobarbital sodium (35 mg kg^-1) before the induction of colitis. 0.1 mL of 50% (v/v) ethanol contained 2.5% (v/v) TNBS was instilled into the colon 3.5-4 cm from the anus by a gavage needle. The mice were kept in a head-down position for 30 s to prevent leakage of the intracolonic instillation. Mice in the control group received normal saline instead of TNBS solution, a physical mixture of 5-ASA and sodium butyrate was used as the positive control. […] The treatments were given once daily for 5 continuous days starting 24 hours after the induction of colitis. After the induction of colitis, the body weight of each mice was recorded daily, and the curves of weight changes for each group were drawn to evaluate the TNBS-induced colitis. Meanwhile, the death of mice in each group was recorded daily and the final survival rates of mice were calculated.

[10] = tested on: SOD, MDA, GSH, GSH-Px in colonic tissues; assay: TNBS-induced colitis: levels of SOD, MDA, GSH and GSH-Px in colonic tissues; assay type: in vivo, mice; settings: vs TNBS group, p < 0.01
Procedure: Colitis was induced according to the previous study.[18,19] Briefly, after 12 h of fasting, mice were anesthetized with intraperitoneal pentobarbital sodium (35 mg kg^-1) before the induction of colitis. 0.1 mL of 50% (v/v) ethanol contained 2.5% (v/v) TNBS was instilled into the colon 3.5-4 cm from the anus by a gavage needle. The mice were kept in a head-down position for 30 s to prevent leakage of the intracolonic instillation. Mice in the control group received normal saline instead of TNBS solution, a physical mixture of 5-ASA and sodium butyrate was used as the positive control. […] The treatments were given once daily for 5 continuous days starting 24 hours after the induction of colitis. Colon tissue samples were homogenized with normal saline, the homogenate (10%, w/w) was centrifuged at 13 000 rpm for 15 min, and the resulting supernatant was diluted to 1% (w/w) for further assay. The protein levels of the colon homogenate were detected by a BCA protein assay kit. Then the activities of SOD and GSH-Px, and the levels of MDA and GSH of samples in each group were measured by the assay kits according to the provider's instructions.

SMILES | P (partition coefficient) [1] | logP at 24 h [1] | half-time (t1/2) [2] [min] | solubility at 24 h [3] [mg/mL] | hydrolysis ratio after in vivo incubation in rat colons [4] [%] | DAI, compared with positive control [5] | residual content of prodrug in small intestine contents [6] [%] | residual content of prodrug in stomach contents [7] | MPO activity in colonic tissues ([8]; vs TNBS group, p < 0.01) | MPO activity, compared with positive control ([8]; vs positive control) | therapeutic effects on the TNBS-induced UC (overall) [9] | GSH-Px activities in the colon [10] | MDA levels in the colon [10] | SOD activities in the colon [10]
Nc1ccc(O)c(C(=O)O)c1 [5-ASA, 5-aminosalicylic acid, reference compound] | 4.47 ± 0.21 | 0.65 ± 0.02 | – | – | – | – | – | – | – | – | – | – | – | –
CCCC(=O)O [Butyrate] | – | – | 6 | – | – | – | – | – | – | – | – | – | – | –
CCCC(=O)Oc1ccc(N)cc1C(=O)O [5-ASB, 5-aminosalicylic acid butyrate] | 1.45 ± 0.10 | 0.16 ± 0.03 | – | 310 ± 50 (≈ 1390 mM) | 6.79 | better effects than the positive control | 100 | hardly hydrolyzed | significantly decreased | significantly better than the positive control | certain therapeutic effects | increased | significantly decreased | increased
